pIC50: −log10 of the molar value.
Molecular target: human muscarinic acetylcholine M3 receptor (M3-ACh) (Homo sapiens, UniProt P20309)
Experiment: biochemical
Assay type: binding

human muscarinic acetylcholine M3 receptor (M3-ACh), sequence (P20309 whole entry): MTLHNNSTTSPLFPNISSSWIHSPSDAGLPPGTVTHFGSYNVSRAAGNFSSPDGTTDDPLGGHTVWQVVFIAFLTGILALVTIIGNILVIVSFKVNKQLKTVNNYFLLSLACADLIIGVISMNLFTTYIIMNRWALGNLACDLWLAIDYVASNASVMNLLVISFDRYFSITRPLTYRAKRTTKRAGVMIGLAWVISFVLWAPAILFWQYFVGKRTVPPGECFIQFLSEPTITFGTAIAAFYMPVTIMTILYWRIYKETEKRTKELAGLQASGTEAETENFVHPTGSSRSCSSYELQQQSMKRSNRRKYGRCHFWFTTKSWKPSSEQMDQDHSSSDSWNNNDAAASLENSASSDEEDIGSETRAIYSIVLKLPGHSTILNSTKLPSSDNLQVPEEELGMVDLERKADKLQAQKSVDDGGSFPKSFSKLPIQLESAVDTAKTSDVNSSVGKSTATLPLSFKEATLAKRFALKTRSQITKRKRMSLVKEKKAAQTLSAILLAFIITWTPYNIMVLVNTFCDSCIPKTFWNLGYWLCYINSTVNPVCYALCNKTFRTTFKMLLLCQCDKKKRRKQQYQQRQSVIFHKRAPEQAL

C[N+]12CCC(CC1)[C@@H](OC(=O)C1(c3ccccc3)CCCC1)C2 [Comparative Example 2, (3R)-1-Methyl-3-{[(1-phenylcyclopentyl)carbonyl]oxy}-1-azoniabicyclo[2.2.2]octane Iodide, reference compound]
pIC50 (pIC50 of comparative compounds containing a cyclopentyl (C5) ring in place of cycloheptyl (C7)): 7.40

C[N+]12CCC(CC1)[C@@H](OC(=O)C1(c3ccccc3)CCCCCC1)C2 [Example 2, (3R)-1-Methyl-3-{[(1-phenylcycloheptyl)carbonyl]oxy}-1-azoniabicyclo[2.2.2]octane Iodide]
pIC50 (M3 binding IC50): 8.00 to 8.70 | pIC50 (pIC50): 8.50 | pIC50 (pIC50 of cycloheptyl (C7) compound): 8.50

O=C(O[C@H]1C[N+]2(CCCOc3ccccc3)CCC1CC2)C1(c2ccccc2)CCCCCC1 [Example 3, (3R)-1-(3-Phenoxypropyl)-3-{[(1-phenylcycloheptyl)carbonyl]oxy}-1-azoniabicyclo[2.2.2]octane Bromide]
pIC50 (M3 binding IC50): > 8.70 | pIC50 (pIC50): 10.30

O=C(C[N+]12CCC(CC1)[C@@H](OC(=O)C1(c3ccccc3)CCCCCC1)C2)Nc1ccon1 [Example 4, (3R)-1-[2-(Isoxazol-3-ylamino)-2-oxoethyl]-3-{[(1-phenylcycloheptyl)carbonyl]oxy}-1-azoniabicyclo[2.2.2]octane Bromide]
pIC50 (M3 binding IC50): > 8.70 | pIC50 (pIC50): 10.20

O=C(O[C@H]1C[N+]2(Cc3ccc(F)cc3)CCC1CC2)C1(c2ccccc2)CCCCCC1 [Example 5, (3R)-1-(4-Fluorobenzyl)-3-{[(1-phenylcycloheptyl)carbonyl]oxy}-1-azoniabicyclo[2.2.2]octane Bromide]
pIC50 (M3 binding IC50): < 8.00

O=C(O[C@H]1C[N+]2(Cc3ccccc3)CCC1CC2)C1(c2ccccc2)CCCCCC1 [Example 6, (3R)-1-Benzyl-3-{[(1-phenylcycloheptyl)carbonyl]oxy}-1-azoniabicyclo[2.2.2]octane Bromide]
pIC50 (M3 binding IC50): < 8.00

O=C(O[C@H]1C[N+]2(Cc3cccc(OC(F)(F)F)c3)CCC1CC2)C1(c2ccccc2)CCCCCC1 [Example 7, (3R)-3-{[(1-Phenylcycloheptyl)carbonyl]oxy}-1-[3-(trifluoromethoxy)benzyl]-1-azoniabicyclo[2.2.2]octane Bromide]
pIC50 (M3 binding IC50): < 8.00

O=C(O[C@H]1C[N+]2(Cc3ccc(F)c(F)c3)CCC1CC2)C1(c2ccccc2)CCCCCC1 [Example 8, (3R)-1-(3,4-Difluorobenzyl)-3-{[(1-phenylcycloheptyl)carbonyl]oxy}-1-azoniabicyclo[2.2.2]octane Bromide]
pIC50 (M3 binding IC50): < 8.00

O=C(O[C@H]1C[N+]2(Cc3ccc(C(F)(F)F)o3)CCC1CC2)C1(c2ccccc2)CCCCCC1 [Example 9, (3R)-3-{[(1-Phenylcycloheptyl)carbonyl]oxy}-1-{[5-(trifluoromethyl)-2-furyl]methyl}-1-azoniabicyclo[2.2.2]octane Bromide]
pIC50 (M3 binding IC50): < 8.00

COc1cccc(C[N+]23CCC(CC2)[C@@H](OC(=O)C2(c4ccccc4)CCCCCC2)C3)c1 [Example 10, (3R)-1-(3-Methoxybenzyl)-3-{[(1-phenylcycloheptyl)carbonyl]oxy}-1-azoniabicyclo[2.2.2]octane Bromide]
pIC50 (M3 binding IC50): 8.00 to 8.70 | pIC50 (pIC50): 8.50

O=C(O[C@H]1C[N+]2(CCOc3ccccc3)CCC1CC2)C1(c2ccccc2)CCCCCC1 [Example 11, (3R)-1-(2-Phenoxyethyl)-3-{[(1-phenylcycloheptyl)carbonyl]oxy}-1-azoniabicyclo[2.2.2]octane bromide]
pIC50 (M3 binding IC50): > 8.70

O=C(O[C@H]1C[N+]2(CCOCc3ccccc3)CCC1CC2)C1(c2ccccc2)CCCCCC1 [Example 12, (3R)-1-[2-(Benzyloxy)ethyl]-3-{[(1-phenylcycloheptyl)carbonyl]oxy}-1-azoniabicyclo[2.2.2]octane Bromide]
pIC50 (M3 binding IC50): > 8.70

O=C(C[N+]12CCC(CC1)[C@@H](OC(=O)C1(c3cccs3)CCCCCC1)C2)Nc1ccon1 [Example 13, (3R)-1-[2-(Isoxazol-3-ylamino)-2-oxoethyl]-3-({[1-(2-thienyl)cycloheptyl]carbonyl}oxy)-1-azoniabicyclo[2.2.2]octane Bromide]
pIC50 (M3 binding IC50): > 8.70

O=C(C[N+]12CCC(CC1)[C@@H](OC(=O)C1(c3ccccc3)CCCCCC1)C2)N1CCCC1 [Example 14, (3R)-1-(2-Oxo-2-pyrrolidin-1-ylethyl)-3-{[(1-phenylcycloheptyl)carbonyl]oxy}-1-azoniabicyclo[2.2.2]octane Bromide]
pIC50 (M3 binding IC50): 8.00 to 8.70

O=C(C[N+]12CCC(CC1)[C@@H](OC(=O)C1(c3ccccc3)CCCCCC1)C2)N1CCOCC1 [Example 15, (3R)-1-(2-Morpholin-4-yl-2-oxoethyl)-3-{[(1-phenylcycloheptyl)carbonyl]oxy}-1-azoniabicyclo[2.2.2]octane Bromide]
pIC50 (M3 binding IC50): 8.00 to 8.70

O=C(C[N+]12CCC(CC1)[C@@H](OC(=O)C1(c3ccccc3)CCCCCC1)C2)Nc1cccnn1 [Example 17, (3R)-1-[2-Oxo-2-(pyridazin-3-ylamino)ethyl]-3-{[(1-phenylcycloheptyl)carbonyl]oxy}-1-azoniabicyclo[2.2.2]octane Bromide]
pIC50 (M3 binding IC50): > 8.70

O=C(C[N+]12CCC(CC1)[C@@H](OC(=O)C1(c3ccccc3)CCCCCC1)C2)NCCOc1ccccc1 [Example 18, (3R)-1-{2-Oxo-2-[(2-phenoxyethyl)amino]ethyl}-3-{[(1-phenylcycloheptyl)carbonyl]oxy}-1-azoniabicyclo[2.2.2]octane Bromide]
pIC50 (M3 binding IC50): > 8.70

O=C(C[N+]12CCC(CC1)[C@@H](OC(=O)C1(c3ccccc3)CCCCCC1)C2)c1cccc(F)c1 [Example 19, (3R)-1-[2-(3-Fluorophenyl)-2-oxoethyl]-3-{[(1-phenylcycloheptyl)carbonyl]oxy}-1-azoniabicyclo[2.2.2]octane Bromide]
pIC50 (M3 binding IC50): > 8.70

Cc1cc(NC(=O)C[N+]23CCC(CC2)[C@@H](OC(=O)C2(c4ccccc4)CCCCCC2)C3)no1 [Example 20, (3R)-1-{2-[(5-Methylisoxazol-3-yl)amino]-2-oxoethyl}-3-{[(1-phenylcycloheptyl)carbonyl]oxy}-1-azoniabicyclo[2.2.2]octane Bromide]
pIC50 (M3 binding IC50): > 8.70

O=C(C[N+]12CCC(CC1)[C@@H](OC(=O)C1(c3ccccc3)CCCCCC1)C2)Nc1ccc(Cl)nn1 [Example 21, (3R)-1-{2-[(6-Chloropyridazin-3-yl)amino]-2-oxoethyl}-3-{[(1-phenylcycloheptyl)carbonyl]oxy}-1-azoniabicyclo[2.2.2]octane Bromide]
pIC50 (M3 binding IC50): > 8.70

O=C(C[N+]12CCC(CC1)[C@@H](OC(=O)C1(c3ccccc3)CCCCCC1)C2)Nc1cccc(F)c1 [Example 22, (3R)-1-{2-[(3-Fluorophenyl)amino]-2-oxoethyl}-3-{[(1-phenylcycloheptyl)carbonyl]oxy}-1-azoniabicyclo[2.2.2]octane Bromide]
pIC50 (M3 binding IC50): > 8.70

O=C(O[C@H]1C[N+]2(CCc3ccc4ccccc4c3)CCC1CC2)C1(c2ccccc2)CCCCCC1 [Example 23, (3R)-1-[2-(2-Naphthyl)ethyl]-3-{[(1-phenylcycloheptyl)carbonyl]oxy}-1-azoniabicyclo[2.2.2]octane Bromide]
pIC50 (M3 binding IC50): > 8.70

COc1cccc(CC[N+]23CCC(CC2)[C@@H](OC(=O)C2(c4ccccc4)CCCCCC2)C3)c1 [Example 24, (3R)-1-[2-(3-Methoxyphenyl)ethyl]-3-{[(1-phenylcycloheptyl)carbonyl]oxy}-1-azoniabicyclo[2.2.2]octane Bromide]
pIC50 (M3 binding IC50): > 8.70

Cc1ccc(CC[N+]23CCC(CC2)[C@@H](OC(=O)C2(c4ccccc4)CCCCCC2)C3)s1 [Example 25, (3R)-1-[2-(5-Methyl-2-thienyl)ethyl]-3-{[(1-phenylcycloheptyl)carbonyl]oxy}-1-azoniabicyclo[2.2.2]octane Bromide]
pIC50 (M3 binding IC50): > 8.70

O=C(O[C@H]1C[N+]2(CCc3ccccc3)CCC1CC2)C1(c2ccccc2)CCCCCC1 [Example 26, (3R)-3-{[(1-Phenylcycloheptyl)carbonyl]oxy}-1-(2-phenylethyl)-1-azoniabicyclo[2.2.2]octane Bromide]
pIC50 (M3 binding IC50): > 8.70

O=C(O[C@H]1C[N+]2(CCc3cccc(C(F)(F)F)c3)CCC1CC2)C1(c2ccccc2)CCCCCC1 [Example 27, (3R)-3-{[(1-Phenylcycloheptyl)carbonyl]oxy}-1-{2-[3-(trifluoromethyl)phenyl]ethyl}-1-azoniabicyclo[2.2.2]octane Bromide]
pIC50 (M3 binding IC50): > 8.70

O=C(O[C@H]1C[N+]2(CCc3ccc4c(c3)OCO4)CCC1CC2)C1(c2ccccc2)CCCCCC1 [Example 28, (3R)-1-[2-(1,3-Benzodioxol-5-yl)ethyl]-3-{[(1-phenylcycloheptyl)carbonyl]oxy}-1-azoniabicyclo[2.2.2]octane bBromide]
pIC50 (M3 binding IC50): > 8.70

N#Cc1ccc(CC[N+]23CCC(CC2)[C@@H](OC(=O)C2(c4ccccc4)CCCCCC2)C3)cc1 [Example 29, (3R)-1-[2-(4-Cyanophenyl)ethyl]-3-{[(1-phenylcycloheptyl)carbonyl]oxy}-1-azoniabicyclo[2.2.2]octane Bromide]
pIC50 (M3 binding IC50): 8.00 to 8.70

O=C1c2ccccc2C(=O)N1CC[N+]12CCC(CC1)[C@@H](OC(=O)C1(c3ccccc3)CCCCCC1)C2 [Example 30, (3R)-1-[2-(1,3-Dioxo-1,3-dihydro-2H-isoindol-2-yl)ethyl]-3-{[(1-phenylcycloheptyl)carbonyl]oxy}-1-azoniabicyclo[2.2.2]octane Bromide]
pIC50 (M3 binding IC50): < 8.00

O=C(C[N+]12CCC(CC1)[C@@H](OC(=O)C1(c3ccccc3)CCCCCC1)C2)Nc1cncc(Cl)n1 [Example 31, (3R)-1-{2-[(6-Chloropyrazin-2-yl)amino]-2-oxoethyl}-3-{[(1-phenylcycloheptyl)carbonyl]oxy}-1-azoniabicyclo[2.2.2]octane Bromide]
pIC50 (M3 binding IC50): > 8.70

O=C(O[C@H]1C[N+]2(CC3(c4ccc(Cl)cc4)CC3)CCC1CC2)C1(c2ccccc2)CCCCCC1 [Example 32, (3R^5)-1-{[1-(4-Chlorophenyl)cyclopropyl]methyl}-3-{[(1-phenylcycloheptyl)carbonyl]oxy}-1-azoniabicyclo[2.2.2]octane Bromide]
pIC50 (M3 binding IC50): 8.00 to 8.70

Cc1cnc(NC(=O)C[N+]23CCC(CC2)[C@@H](OC(=O)C2(c4ccccc4)CCCCCC2)C3)cn1 [Example 33, (3R)-1-{2-[(5-Methylpyrazin-2-yl)amino]-2-oxoethyl}-3-{[(1-phenylcycloheptyl)carbonyl]oxy}-1-azoniabicyclo[2.2.2]octane Bromide]
pIC50 (M3 binding IC50): > 8.70

From patent US8207193B2 (priority 2006, dated 2012)
